This is an account of results in ChEMBL document CHEMBL1201862, “PubChem BioAssay data set” (2004).

Active and inactive are the calls of the source.

In general, EC50 refers to the midpoint of the concentration-response curve. For orientation: IC50 means the point on the concentration scale where inhibition reaches its midpoint.

A short description of data set [1]: inhibitors of firefly luciferase expression or activity, dose response, H4 neuroglioma cells, luminescence (AID 1990). The class given is functional, cell-based.
Data set [2] deals with HEK293. Description: SAR Analysis of small molecule inhibitors of B-cell specific antigen receptor-induced NF-kB activation in a HEK-293T cell line using a luminescence assay - Set 2. [Related pubchem assays (depositor defined):AID435022, AID435025, AID489021]. The class given is functional, cell-based. The conditions noted are these: Homo sapiens.
The nature of data set [3]: inhibitors of SNCA 5'UTR-driven reporter translation, confirmation, H4 neuroglioma cells, luminescence (AID 1988). The class given is functional, cell-based.
Another data set deals with Jurkat. The data set is described as follows: SAR Analysis of small molecule inhibitors of […] specific antigen receptor-induced NF-kB activation in a Jurkat cell line using a luminescence assay - Set 3. [Related pubchem assays (depositor defined):AID435022, AID435025, AID465]. The class given is functional, cell-based. As to conditions: Homo sapiens.
A short description of data set [4]: Luminescence Cell-Based Dose Response HTS to Identify Inhibitors of 5'UTR Stem-Loop Driven Prion Protein mRNA Translation in H4 Neuroglioblastoma Cells. [Related pubchem assays: 1827 (Project Summary), 1813 (Primary HTS)]. The class given is functional.
Data set [5] is described as follows: Luminescence-based counterscreen assay for KLF5 inhibitors: dose response cell-based high throughput screening assay to identify cytotoxic compounds using the IEC-6 intestinal epithelial cell line. [Related pubchem assays: 1700 (Primary screen.), 1834 (Confirmation screen.), 1858 (Summary AID.), 1905 (Counterscreen.)]. The class given is functional. (Counterscreens check selectivity or assay interference.)

Data set [6] in a line: inhibitors of SNCA 5'UTR-driven translation, confirmation, luminescence, H4 neuroglioblastoma cells, dose confirmation (AID 2454).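 Note: H4 neuroglioblastoma cells carrying an alpha-synuclein 5'UTR luciferase reporter; potency for inhibition of the luciferase signal.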 The class given is functional, cell-based.
The test system of data set [7] is HEK293. The data set is described as follows: cytotoxicity in HEK293T NF-kB-Luc cells, SAR follow-up, cytotoxicity control for NF-kB activator project, cell-based, resazurin fluorescence (AID 493251). The class given is functional. The conditions noted are these: Homo sapiens. (Alamar Blue is a resazurin reagent that responds to reducing activity.)
The nature of another data set: cells. The class given is functional, cell-based.
Data set [8] is described as follows: cytotoxicity in HEK-293T cells, dose response, cytotoxicity control for BCR NF-kB inhibitor project, luminescence, B-cell screen hits (AID 489021).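 Note: HEK-293T cells carrying an NF-kB luciferase reporter; cells exposed to compound for about 14 hours before viability readout.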 The class given is functional, cell-based.
Data set [9] is described as follows: luciferase reporter signal reduction – luminescence, H4-C neuroglioblastoma cells, dose response (AID 2458).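 Note: H4 neuroglioblastoma cells stably carrying a luciferase reporter gene fusion.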 The class given is functional, cell-based. Background: Reporter assays use an easily measured gene product as a stand-in for the process of interest.
For another data set, the target named is Cytochrome P450 2C19 (Homo sapiens, UniProt P33261). The data set is described as follows: Cytochrome panel assay with activity outcomes. Panel member name: p450-cyp2c19 Compounds with AC50 equal or less than 10 uM are considered active. The class given is functional.
Sequence of Cytochrome P450 2C19 (P33261 whole entry): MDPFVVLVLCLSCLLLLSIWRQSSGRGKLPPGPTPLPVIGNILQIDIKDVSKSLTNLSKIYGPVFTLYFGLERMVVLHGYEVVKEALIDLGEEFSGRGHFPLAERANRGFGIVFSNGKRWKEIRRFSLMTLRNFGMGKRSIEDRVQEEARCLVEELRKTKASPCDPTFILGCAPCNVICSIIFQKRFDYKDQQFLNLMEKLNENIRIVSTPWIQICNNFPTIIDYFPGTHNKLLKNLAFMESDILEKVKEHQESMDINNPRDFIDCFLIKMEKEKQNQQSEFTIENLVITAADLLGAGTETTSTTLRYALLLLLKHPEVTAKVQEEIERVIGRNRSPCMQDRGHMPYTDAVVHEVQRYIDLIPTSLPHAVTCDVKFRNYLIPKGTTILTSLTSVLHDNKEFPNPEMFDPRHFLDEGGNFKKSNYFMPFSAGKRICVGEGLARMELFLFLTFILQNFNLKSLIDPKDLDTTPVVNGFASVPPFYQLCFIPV
Another data set addresses T1, Cytochrome P450 1A2 (Homo sapiens, UniProt P05177).
T1 sequence (P05177 whole entry): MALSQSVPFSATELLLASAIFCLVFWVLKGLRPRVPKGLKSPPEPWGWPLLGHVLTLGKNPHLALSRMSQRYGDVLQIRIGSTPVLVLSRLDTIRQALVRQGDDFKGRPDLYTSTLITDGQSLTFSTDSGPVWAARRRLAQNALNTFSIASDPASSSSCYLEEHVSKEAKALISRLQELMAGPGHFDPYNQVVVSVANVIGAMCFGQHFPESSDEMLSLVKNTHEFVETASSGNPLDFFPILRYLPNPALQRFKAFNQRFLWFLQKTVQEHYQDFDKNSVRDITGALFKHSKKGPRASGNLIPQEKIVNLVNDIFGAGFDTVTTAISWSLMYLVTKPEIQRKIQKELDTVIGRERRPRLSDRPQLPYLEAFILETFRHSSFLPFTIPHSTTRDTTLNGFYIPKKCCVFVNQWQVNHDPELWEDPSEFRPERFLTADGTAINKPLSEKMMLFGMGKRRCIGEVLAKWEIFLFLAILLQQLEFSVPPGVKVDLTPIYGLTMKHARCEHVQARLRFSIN

A further data set has as its target Cytochrome P450 2C9 (Homo sapiens, UniProt P11712).

Sequence of Cytochrome P450 2C9 (P11712 whole entry): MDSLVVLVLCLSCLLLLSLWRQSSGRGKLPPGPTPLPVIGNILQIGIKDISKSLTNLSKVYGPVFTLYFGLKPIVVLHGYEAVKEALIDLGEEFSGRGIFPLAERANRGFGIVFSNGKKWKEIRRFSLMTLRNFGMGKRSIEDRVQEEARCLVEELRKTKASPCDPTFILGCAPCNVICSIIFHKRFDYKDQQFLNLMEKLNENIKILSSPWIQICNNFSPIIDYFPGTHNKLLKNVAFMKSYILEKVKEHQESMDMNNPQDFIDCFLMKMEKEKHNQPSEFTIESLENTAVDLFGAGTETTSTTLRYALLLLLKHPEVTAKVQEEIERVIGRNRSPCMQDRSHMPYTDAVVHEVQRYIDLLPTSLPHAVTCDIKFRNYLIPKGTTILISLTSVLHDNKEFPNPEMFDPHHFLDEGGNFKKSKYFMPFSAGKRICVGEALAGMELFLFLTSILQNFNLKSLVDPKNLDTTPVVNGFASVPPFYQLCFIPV

For the compound `CC(C)(C)c1ccc(-c2noc(CCC(=O)Nc3cccnc3)n2)cc1`, the EC50 is < 100 nM (active) in data set [1]; < 100 nM (active) in data set [3]; < 100 nM (active) in data set [4]; 774 nM (active) in data set [6]; 321 nM (active) in “cells”; 1180 nM (active) in data set [9]. The IC50 in the data set with HEK293 [2] was 470 nM (active); with Jurkat, 435 nM (active); in [5], > 39800 nM (not active); with HEK293 [7], 20500 nM (inactive); in data set [8], > 80000 nM (inactive).

As for `Cc1noc(C)c1C(=O)N1CCC2(CCCN(C(=O)NC(C)C)C2)CC1`, the AC50 result on Cytochrome P450 2C19, at Cytochrome P450 1A2 and on Cytochrome P450 2C9 was “inconclusive” each time.
